Earlier results, collected in the Kinase Knowledgebase extract (Sharma et al. 2016).

Biological target: EGFR (UniProt P00533)
Sequence (P00533 whole entry, looked up): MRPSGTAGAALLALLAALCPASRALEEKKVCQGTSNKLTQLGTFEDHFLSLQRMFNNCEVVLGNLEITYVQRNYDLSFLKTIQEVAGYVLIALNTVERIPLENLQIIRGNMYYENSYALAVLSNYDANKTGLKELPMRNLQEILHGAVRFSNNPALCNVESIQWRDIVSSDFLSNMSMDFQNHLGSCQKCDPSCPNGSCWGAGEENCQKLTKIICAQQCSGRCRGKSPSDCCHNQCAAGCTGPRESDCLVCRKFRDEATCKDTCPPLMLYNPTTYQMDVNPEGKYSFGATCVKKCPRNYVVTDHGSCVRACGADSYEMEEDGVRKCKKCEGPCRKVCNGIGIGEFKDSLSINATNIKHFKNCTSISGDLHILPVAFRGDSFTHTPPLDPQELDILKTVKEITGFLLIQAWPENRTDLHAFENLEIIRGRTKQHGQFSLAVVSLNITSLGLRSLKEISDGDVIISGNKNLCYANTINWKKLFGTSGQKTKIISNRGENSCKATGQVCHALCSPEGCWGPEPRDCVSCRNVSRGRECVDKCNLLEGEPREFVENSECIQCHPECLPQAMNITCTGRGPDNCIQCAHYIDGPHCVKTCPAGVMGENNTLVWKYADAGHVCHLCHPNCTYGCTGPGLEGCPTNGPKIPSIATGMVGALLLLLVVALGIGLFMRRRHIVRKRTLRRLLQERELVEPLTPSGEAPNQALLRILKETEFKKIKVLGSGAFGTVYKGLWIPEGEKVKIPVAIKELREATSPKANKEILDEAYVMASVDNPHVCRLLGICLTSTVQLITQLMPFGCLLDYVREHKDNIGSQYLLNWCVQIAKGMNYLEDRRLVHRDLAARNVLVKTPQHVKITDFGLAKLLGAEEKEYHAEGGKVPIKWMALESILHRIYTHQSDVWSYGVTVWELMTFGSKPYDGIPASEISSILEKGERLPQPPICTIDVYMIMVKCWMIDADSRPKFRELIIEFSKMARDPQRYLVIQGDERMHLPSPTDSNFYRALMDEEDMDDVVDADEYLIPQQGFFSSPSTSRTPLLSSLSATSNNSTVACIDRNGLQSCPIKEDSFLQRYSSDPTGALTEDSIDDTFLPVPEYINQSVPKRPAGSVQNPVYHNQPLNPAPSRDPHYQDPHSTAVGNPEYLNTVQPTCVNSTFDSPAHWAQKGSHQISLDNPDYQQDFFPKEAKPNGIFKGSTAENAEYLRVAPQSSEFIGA

IC50 | SMILES
8 nM | CN(C)CCCNc1cc2ncnc(Nc3cccc(Br)c3)c2cn1
200 nM | COc1cc2c(Nc3cccc(Br)c3F)ncnc2cc1OC[C@@H]1CCCN(C)C1
100 nM | COCCOc1cc2ncnc(Nc3cccc(Cl)c3F)c2cc1OC
200 nM | COc1cc2c(Nc3cccc(Cl)c3F)ncnc2cc1OCCN1CCN(C)CC1
2 nM | CN(CCO)c1cc2ncnc(Nc3cccc(Br)c3)c2cn1
1 nM | CNc1cc2ncnc(Nc3cccc(C)c3)c2cn1
3 nM | CNC(=O)c1cc2c(Nc3cccc(Cl)c3)ncnc2[nH]1
100 nM | COc1cc2c(Nc3cccc(Cl)c3F)ncnc2cc1OCCCN1CCOCC1
794 nM | COc1cc2c(Nc3cccc(C#N)c3F)ncnc2cc1OC/C=C/CN1CCCC1
200 nM | COc1cc2c(Nc3cccc(Br)c3F)ncnc2cc1OCC1CCNCC1
0.7 nM | [O-][N+]1(CCCNc2cc3ncnc(Nc4cccc(Br)c4)c3cn2)CCOCC1
7 nM | Clc1cccc(Nc2ncnc3[nH]c(-c4ccccn4)cc23)c1
100 nM | COc1cc2c(Nc3cccc(Br)c3F)ncnc2cc1OC[C@H]1CCCN(C)C1
300 nM | COc1cc2c(Nc3cccc(Cl)c3F)ncnc2cc1OCCC1CCN(C)CC1
100 nM | COc1cc2c(Nc3cccc(Cl)c3F)ncnc2cc1OC[C@@H]1CCCN(C)C1
300 nM | COc1cc2c(Nc3ccc(O)c(C)c3F)ncnc2cc1OCC1CCN(C)CC1
3 nM | CN(CC(O)C(O)C(O)C(O)CO)c1cc2ncnc(Nc3cccc(Br)c3)c2cn1 (stereo unspecified)
100 nM | COc1cc2c(Nc3cccc(Cl)c3F)ncnc2cc1OCCCN1CCCC1
3 nM | Nc1ccc(-c2cc3c(Nc4cccc(Cl)c4)ncnc3[nH]2)cc1

IC50 | SMILES
398 nM | COc1cc2c(Nc3cccc(Cl)c3F)ncnc2cc1OCCN1CCOCC1
300 nM | COc1cc2c(Nc3cccc(Cl)c3F)ncnc2cc1OCCN(C)c1ccncc1
100 nM | COc1cc2c(Nc3ccc(O)c(Cl)c3F)ncnc2cc1OCC1CCN(C)CC1
3 nM | Brc1cccc(Nc2ncnc3cc(NCCN4CCOCC4)ncc23)c1
0.1 nM | CNc1cc2ncnc(Nc3cccc(Br)c3)c2cn1
200 nM | COc1cc2c(Nc3cccc(Br)c3F)ncnc2cc1OCCC1CCNCC1
76 nM | COc1cc2c(Nc3cccc(Cl)c3F)ncnc2cc1OCCCN1CCN(C)CC1
1 nM | O=S(=O)(O)CCNc1cc2ncnc(Nc3cccc(Br)c3)c2cn1
450 nM | COc1cc2c(Nc3cc(F)cc(Br)c3F)ncnc2cc1OCC1CCNCC1
3.4 nM | Cc1cccc(Nc2ncnc3cc(NCCCn4ccnc4)ncc23)c1
8.3 nM | CN(C)CCCCCNc1cc2ncnc(Nc3cccc(Br)c3)c2cn1
15.1 nM | COc1ccc(-c2cc3c(Nc4cccc(Cl)c4)ncnc3[nH]2)cc1
3 nM | CN(CC(O)CO)c1cc2ncnc(Nc3cccc(Br)c3)c2cn1 (stereo unspecified)
81 nM | Clc1ncc2ncnc(Nc3cccc(Br)c3)c2n1
100 nM | COc1cc2c(Nc3cccc(Br)c3F)ncnc2cc1OC/C=C/CN1CCCC1
7 nM | NNc1cc2ncnc(Nc3cccc(Br)c3)c2cn1
300 nM | COc1cc2c(Nc3cccc(Cl)c3F)ncnc2cc1OCC1CCNCC1
1 nM | O=C(O)c1ccc(-c2cc3c(Nc4cccc(Cl)c4)ncnc3[nH]2)cc1
0.75 nM | CNc1ncc2ncnc(Nc3cccc(Br)c3)c2n1

IC50 | SMILES
3 nM | Oc1ccc(-c2cc3c(Nc4cccc(Cl)c4)ncnc3[nH]2)cc1
500 nM | COc1cc2c(Nc3cccc(C)c3F)ncnc2cc1OCC1CCNCC1
89 nM | COc1cc2c(Nc3cccc(Cl)c3F)ncnc2cc1OC/C=C/CN1CCCC1
0.2 nM | OCCNc1cc2ncnc(Nc3cccc(Br)c3)c2cn1
200 nM | COc1cc2c(Nc3cccc(Br)c3F)ncnc2cc1OCCC1CCN(C)CC1
100 nM | COc1cc2c(Nc3cccc(Br)c3F)ncnc2cc1OCCCN1CCN(C)CC1
6920 nM | c1ccc(Nc2ncnc3[nH]c4ccccc4c23)cc1
450 nM | COc1cc2c(Nc3cc(F)cc(Cl)c3F)ncnc2cc1OCC1CCN(C)CC1
15 nM | CN(CC(=O)O)c1cc2ncnc(Nc3cccc(Br)c3)c2cn1
9 nM | OCCN(CCO)CCNc1cc2ncnc(Nc3cccc(Br)c3)c2cn1
0.2 nM | O=C(O)CCCNc1cc2ncnc(Nc3cccc(Br)c3)c2cn1
500 nM | COc1cc2c(Nc3cc(F)cc(Cl)c3F)ncnc2cc1OCC1CCNCC1
1070 nM | Cc1[nH]c2ncnc(NCc3cccc(Cl)c3)c2c1C
4 nM | OCC(O)C(O)C(O)C(O)CNc1cc2ncnc(Nc3cccc(Br)c3)c2cn1 (stereo unspecified)
300 nM | COc1cc2c(Nc3cc(F)cc(Br)c3F)ncnc2cc1OCC1CCN(C)CC1
1000 nM | COc1cc2c(Nc3cccc(C)c3F)ncnc2cc1OCC1CCN(C)CC1
0.089 nM | CN(C)c1cc2ncnc(Nc3cccc(Br)c3)c2cn1
3.9 nM | Nc1cccc(-c2cc3c(Nc4cccc(Cl)c4)ncnc3[nH]2)c1
